Data as given in patent publication EP1202724B1, “METHOD FOR TREATING CHRONIC PAIN USING MEK INHIBITORS” (WARNER-LAMBERT COMPANY, priority 1999, dated 2001).
Entries after “also recorded” stand apart in the source; their conditions may differ.

Key:
APK = APK IC50; type: biochemical
[1] = system: CCI-induced static allodynia; test: static allodynia in CCI animals after intrathecal administration of other MEK inhibitors (Biological Example 3); type: in vivo, rat; details: for magnitude of the antiallodynic effect: intrathecal, 30µg of PD 184352 compared with 100µg of pregabalin
Source text: (§1) Animals were anaesthetised with 2% isoflurane 1:4 O2/N2O mixture maintained during surgery via a nose cone. The sciatic nerve was ligated as previously described by Bennett and Xie, 1988. Animals were placed on a homeothermic blanket for the duration of the procedure. After surgical preparation the common sciatic nerve was exposed at the middle of the thigh by blunt dissection through biceps femoris. Proximal to the sciatic trifurcation, about 7mm of nerve was freed of adhering tissue and 4 ligatures (4-0 silk) were tied loosely around it with about 1mm spacing. The incision was closed in layers and the wound treated with topical antibiotics.
(§2) PD 198306 and pregabalin were administered intrathecally in a volume of 10 µl using a 100 µl Hamilton syringe by exposing the spine of the rats under brief isoflurane anaesthesia. Injections were made into the intrathecal space between lumbar region 5-6 with a 10 mm long 27 gauge needle. Penetrations were judged successful if there was a tail flick response. The wound was sealed with an autoclip and rats appeared fully awake within 2-3 min following injection.
(§3) Mechanical hypersensitivity was measured using Semmes-Weinstein von Frey hairs (Stoelting, Illinois, U.S.A.). Animals were placed into wire mesh bottom cages allowing access to the underside of their paws. Animals were habituated to this environment prior to the start of the experiment. Mechanical hypersensitivity was tested by touching the plantar surface of the animals right hind paw with von Frey hairs in ascending order of force ( 0.7, 1.2, 1.5, 2, 3.6, 5.5, 8.5, 11.8, 15.1 and 29g) for up to 6sec. Once a withdrawal response was established, the paw was re-tested, starting with the next descending von Frey hair until no response occurred. The highest force of 29g lifted the paw as well as eliciting a response, thus represented the cut off point. The lowest amount of force required to elicit a response was recorded as the paw withdrawal threshold (PWT) in grams.
The animals and methods for developing chronic constriction injury in the rat, injecting test compounds, and evaluation of static allodynia were according to Example 2 above. […] Static allodynia was assessed with von Frey hairs, before (baseline, BL) and 0.5h, 1h and 2h after intrathecal administration of the compounds
Pregabalin was dissolved in water. All compounds were administered intrathecally in a 10µl volume.
(§4) Data were analysed using a Kruskall-Wallis ANOVA for non-parametric results, followed when significant by Mann-Whitney's t test vs vehicle group.

MEK = test: affinity (binding affinities) of the MEK inhibitors; details: affinity of the MEK inhibitors tested in the CCI model
[2] = system: streptozocin-induced static allodynia; test: streptozocin-induced static allodynia, von Frey hairs, oral administration (Biological Example 1); type: in vivo, rat
Description: Male Sprague Dawley rats (250-300g), obtained from Bantin and Kingman, (Hull, U.K.) were housed in groups of 3. All animals were kept under a 12h light/dark cycle (lights on at 07h 00min) with food and water ad libitum. All experiments were carried out by an observer blind to drug treatments.
Diabetes was induced in rats by a single i.p. injection of streptozocin (50 mg/kg) as described previously (Courteix et al., 1993).
as §3, with “to 6 sec.” for “to 6sec.”, “of 29 g” for “of 29g”
PD 198306 [N-Cyclopropylmethoxy-3,4,5-trifluoro-2-(4-iodo-2-methylphenylamino)-benzamide] and Cl-1008 (pregabalin) were synthesized at Parke-Davis (Ann Arbor, Ml, USA). PD 198306 was suspended in cremophor:ethanol:water (1:1:8) vehicle. Pregabalin was dissolved in water. Both compounds were administered orally. Streptozocin (Aldrich, UK) was dissolved in 0.9% w/v NaCI and administered intraperitoneally. Drug administrations were made in a volume of 1 ml/kg.
The static allodynia data were analysed using a Kruskall-Wallis ANOVA for non-parametric results, followed when significant by Mann-Whitney's t test.
Static allodynia was assessed with von Frey hairs, before (baseline, BL) and 1h after oral administration of PD 198306 (30mg/kg, p.o.), vehicle (cremophor:ethanol:water, 1:1:8) or pregabalin (30mg/kg, p.o.) (test). Animals were administered again the same compounds on the following day, both in the morning and the afternoon. Static allodynia was assessed only before and 1h after the afternoon administration, in order to minimise the habituation of the animals to the testing conditions. Animals treated with pregabalin received water in the morning administration, in order to avoid the potential development of tolerance to the compound with repeated administration.

[3] = system: CCI-induced static allodynia; test: CCI-induced static allodynia (chronic constriction injury of the sciatic nerve), von Frey hairs (Biological Example 2); type: in vivo, rat
Description: (§5) Male Sprague Dawley rats (250-300g), obtained from Charles River, Margate, U.K.) were housed in groups of 3-6. All animals were kept under a 12h light/dark cycle (lights on at 07h 00min) with food and water ad libitum. All experiments were carried out by an observer blind to drug treatments.
as §1, §2, §3
(§6) Static allodynia was assessed with von Frey hairs, before (baseline, BL) and 0.5h, 1h and 2h after intrathecal or intraplantar administration of PD 198306 (1-30µg, i.t.), vehicle (cremophor:ethanol:water, 1:1:8) or pregabalin (10µg, i.t). For oral administration experiments, static allodynia was assessed with von Frey hairs, before (baseline, BL) and 1h after oral administration of PD 198306 (3-30mg/kg, p.o.), vehicle (cremophor:ethanol:water, 1:1:8) or pregabalin (30mg/kg, p.o.). Animals were administered again the same compounds on the following day, both in the morning and the afternoon. Static allodynia was assessed before and 1h after the morning administration. In the afternoon static allodynia was assessed before, 1h, 2h and 3h after administration for streptozocin treated animals. CCI animals were assessed before, 1h and 2h after administration
(§7) PD 198306 and pregabalin were synthesised at Parke-Davis (Ann Arbor, Ml, USA). PD 198306 was suspended in cremophor:ethanol:water (1:1:8) vehicle. Pregabalin was dissolved in water. Both compounds were administered orally, intrathecally or intraplantar in volumes of 1ml/kg, 10µl and 100µl respectively. Streptozocin (Aldrich, UK) was dissolved in 0.9% w/v NaCl and administered intraperitoneally in a volume of 1ml/kg.
as §4

[4] = system: streptozocin-induced static allodynia; test: streptozocin-induced static allodynia, von Frey hairs, oral, intrathecal or intraplantar administration (Biological Example 2); type: in vivo, rat
Description: as §5
Diabetes was induced in rats by a single i.p. injection of streptozocin (50mg/kg) as described previously (Courteix et al., 1993).
as §2, §3, §6, §7, §4

[5] = single administration 30mg/kg p.o., 1h after administration
[6] = intrathecal, streptozocin animals

O=C(O)c1cc([N+](=O)[O-])c(Nc2ccc(I)cc2Cl)c(F)c1Nc1ccc(I)cc1Cl [2,4-bis-(2-chloro-4-iodo-phenylamino)-3-fluoro-5-nitrobenzoic acid]
IC50 (APK): 29.6 nM

COC(=O)c1cc(S(=O)(=O)N(C)C)c(F)c(F)c1Nc1ccc(I)cc1Cl [2-(2-chloro-4-iodo-phenylamino)-5-dimethylsulfamoyl-3,4-difluoro-benzoic acid methyl ester]
IC50 (APK): 222 nM

NS(=O)(=O)c1cc(C(=O)NOCC2CC2)c(Nc2ccc(I)cc2Cl)c(F)c1F [PD219622, 2-(2-chloro-4-iodo-phenylamino)-N-cyclopropylmethoxy-3,4-difluoro-5-sulfamoyl-benzamide]
effect on static allodynia ([1]; intrathecal 30µg): had no significant effect
IC50 (MEK): 100 nM

O=C(NOCC1CC1)c1ccc(F)c(F)c1Nc1ccc(I)cc1Cl [PD 184352]
duration of antiallodynic effect post-injection ([1]; intrathecal 30µg): 30 min
effect on static allodynia ([1]; intrathecal 30µg): blocked the maintenance of static allodynia
magnitude of the antiallodynic effect [1]: similar

Cc1cc(I)ccc1Nc1c(C(=O)NOCC2CC2)cc(F)c(F)c1F [PD 198306, N-Cyclopropylmethoxy-3,4,5-trifluoro-2-(4-iodo-2-methylphenylamino)-benzamide]
streptozocin-induced static allodynia ([2]; 30mg/kg p.o., 1h after the third administration (administered twice more on the following day)): significantly blocked
persistence of the effects on streptozocin-induced static allodynia ([2]; 30mg/kg p.o., day after the third administration): had disappeared by the following day
streptozocin-induced static allodynia [2, 5]: had no effect
CCI-induced static allodynia ([3]; 3-30mg/kg p.o., single or multiple administration): had no effect; also recorded: neither a single or multiple administration of PD 198306 (3-30mg/kg, p.o) had any effect
static allodynia ([3]; intraplantar 3mg/100µl, CCI animals): had no effect
maintenance of static allodynia ([3]; intrathecal 30µg (highest dose), CCI animals): totally blocked; also recorded: significantly blocked
maintenance of static allodynia ([3]; intrathecal 1-30µg, CCI animals): dose-dependently blocked
duration of antiallodynic effect ([3]; intrathecal, CCI animals): up to 1 h
minimum effective dose (MED) ([3]; intrathecal, CCI animals): 10 µg
duration of antiallodynic effect ([3]; intrathecal, CCI animals, listed as PD198306): 1 h
duration of block of streptozocin-induced static allodynia ([4]; 30mg/kg p.o., after the third administration): 2 h
static allodynia ([4]; intraplantar 3mg/100µl, streptozocin animals): had no effect
maintenance of static allodynia ([4]; intrathecal 30µg (highest dose), streptozocin animals): totally blocked; also recorded: significantly blocked
maintenance of static allodynia ([4]; intrathecal 1-30µg, streptozocin animals): dose-dependently blocked
duration of antiallodynic effect [4, 6]: up to 1 h
minimum effective dose (MED) [4, 6]: 3 µg
duration of antiallodynic effect ([4]; intrathecal, streptozocin animals, listed as PD198306): 1 h
streptozocin-induced static allodynia ([4]; p.o., 30mg/kg, after the third administration (3 doses over two days), 30 mg/kg): transient effect; also recorded: significantly blocked
streptozocin-induced static allodynia ([4]; single administration 3-30mg/kg p.o., 1h after administration): had no effect

O=S(=O)(NOCC1CC1)c1ccc(F)c(F)c1Nc1ccc(I)cc1Cl [PD 0297447, 2-(2-Chloro-4-iodo-phenylamino)-N-cyclopropylmethoxy-3,4-difluoro-benzenesulfonamide]
effect on static allodynia ([1]; intrathecal 30µg): had no significant effect
IC50 (APK): 965 nM
IC50 (MEK): 965 nM

CC(C)C[C@H](CN)CC(=O)O [pregabalin, reference compound]
streptozocin-induced static allodynia [2, 5]: significantly blocked
magnitude of the antiallodynic effect [1]: similar
CCI-induced static allodynia [3, 5]: significantly blocked
streptozocin-induced static allodynia [4, 5]: significantly blocked
